{"source": "patent US8614193", "key": {"[1]": {"conditions": "disulfide bond, 15-membered ring, I2 (10 eq), CH2Cl2/MeOH 9:1, 0.43 mM"}}, "note": "Values joined by “and” are separate entries in the source; they are usually repeats but may differ in a detail not shown here. Equal entries are not always repeated. Where two headings read alike, the source gives them in different places."}
{"compound": "CC(C)(C)OC(=O)CC[C@H]1NC(=O)C[C@@H](/C=C/CCSC(c2ccccc2)(c2ccccc2)c2ccccc2)OC(=O)CC(O)C2(CC2)NC(=O)[C@@H](CSC(c2ccccc2)(c2ccccc2)c2ccccc2)NC1=O", "note": "(stereo partly drawn)", "values": [{"measurement": "ring closure, isolated yield", "setting": "from (R)-4-{(S)-1-[1-(2-Carboxy-1-hydroxy-ethyl)-cyclopropylcarbamoyl]-2-tritylsulfanyl-ethylcarbamoyl}-4-((E)-(S)-3-hydroxy-7-tritylsulfanyl-hept-4-enoylamino)-butyric acid tert-butyl ester, ester bond, 15-membered ring, MNBA/DMAP, CH2Cl2, 1.07 mM", "result": 56, "unit": "%"}]}
{"compound": "CC(C)(C)OC(=O)CC[C@H]1NC(=O)C[C@@H](/C=C/CCSC(c2ccccc2)(c2ccccc2)c2ccccc2)OC(=O)CNC(=O)C(C)(C)NC(=O)[C@@H](CSC(c2ccccc2)(c2ccccc2)c2ccccc2)NC1=O", "values": [{"measurement": "ring closure, isolated yield", "setting": "from (E)-(S)-3-hydroxy-7-tritylsulfanyl-hept-4-enoyl-dGlu(OtBu)-dCys(Trt)-Aib-Gly-OH, ester bond, 16-membered ring, MNBA/DMAP, CH2Cl2/THF, 0.94 mM, 2 steps", "result": 63, "unit": "%"}]}
{"compound": "CC(C)(C)OC(=O)CC[C@H]1NC(=O)C[C@@H](/C=C/CCSC(c2ccccc2)(c2ccccc2)c2ccccc2)OC(=O)CNC(=O)C2(CC2)NC(=O)[C@@H](CSC(c2ccccc2)(c2ccccc2)c2ccccc2)NC1=O", "values": [{"measurement": "ring closure, isolated yield", "setting": "from (E)-(S)-3-hydroxy-7-tritylsulfanyl-hept-4-enoyl-dGlu(OtBu)-dCys(Trt)-Acc-Gly-OH, ester bond, 16-membered ring, MNBA/DMAP, CH2Cl2/THF, 0.85 mM, 25.0 °C, 2 steps", "result": 29, "unit": "%"}]}
{"compound": "CC(C)[C@@H]1NC(=O)[C@@H](CSC(c2ccccc2)(c2ccccc2)c2ccccc2)NC(=O)C2(CC2)NC(=O)C[C@@H](/C=C/CCSC(c2ccccc2)(c2ccccc2)c2ccccc2)OC(=O)CNC1=O", "values": [{"measurement": "ring closure, isolated yield", "setting": "from (3S,4E)-3-hydroxy-7-(tritylthio)hept-4-enoyl-Ac3c-dCys(Trt)-Val-Gly-OH?, ester bond, 16-membered ring, MNBA/DMAP, CH2Cl2/THF, 0.77 mM, 2 steps", "result": 50, "unit": "%"}]}
{"compound": "O=C1C[C@@H](/C=C/CCSC(c2ccccc2)(c2ccccc2)c2ccccc2)OC(=O)CNC(=O)C2(CC2)NC(=O)[C@@H](CSC(c2ccccc2)(c2ccccc2)c2ccccc2)NC(=O)CN1", "values": [{"measurement": "ring closure, isolated yield", "setting": "from (3S,4E)-3-hydroxy-7-(tritylthio)hept-4-enoyl-Gly-dCys(Trt)-Ac3c-Gly-OH, ester bond, 16-membered ring, MNBA/DMAP, CH2Cl2, 0.85 mM", "result": 45, "unit": "%"}]}
{"compound": "O=C1C[C@@H](/C=C/CCSC(c2ccccc2)(c2ccccc2)c2ccccc2)OC(=O)CNC(=O)C2(CC2)NC(=O)[C@@H](CSC(c2ccccc2)(c2ccccc2)c2ccccc2)NC(=O)[C@@H](Cc2cccc(Cl)c2)N1", "values": [{"measurement": "ring closure, isolated yield", "setting": "from (3S,4E)-3-hydroxy-7-(tritylthio)hept-4-enoyl-dPhe(3-Cl)-dCys(Trt)-Acc(1-aminocyclopropanecarbonyl)-Gly-OH, ester bond, 16-membered ring, MNBA/DMAP, CH2Cl2, 1.06 mM", "result": 40, "unit": "%"}]}
{"compound": "O=C1C[C@@H](/C=C/CCSC(c2ccccc2)(c2ccccc2)c2ccccc2)OC(=O)CNC(=O)C2(CC2)NC(=O)[C@@H](CSC(c2ccccc2)(c2ccccc2)c2ccccc2)NC(=O)[C@@H](Cc2ccccc2)N1", "values": [{"measurement": "ring closure, isolated yield", "setting": "from (3S,4E)-3-hydroxy-7-(tritylthio)hept-4-enoyl-dPhe-dCys(Trt)-Acc(1-aminocyclopropanecarbonyl)-Gly-OH, ester bond, 16-membered ring, MNBA/DMAP, CH2Cl2/THF, 0.83 mM, 2 steps", "result": 58, "unit": "%"}]}
{"compound": "O=C1C[C@@H](/C=C/CCSC(c2ccccc2)(c2ccccc2)c2ccccc2)OC(=O)CNC(=O)C2(CC2)NC(=O)[C@@H](CSC(c2ccccc2)(c2ccccc2)c2ccccc2)NC(=O)[C@@H](Cc2cccnc2)N1", "values": [{"measurement": "ring closure, isolated yield", "setting": "from (3S,4E)-3-hydroxy-7-(tritylthio)hept-4-enoyl-d3Pal-dCys(Trt)-Acc(1-aminocyclopropanecarbonyl)-Gly-OH?, ester bond, 16-membered ring, MNBA/DMAP, CH2Cl2/THF, 0.67 mM, 2 steps", "result": 96, "unit": "%"}]}
{"compound": "3-((E)-(1S,9S,20R)-5-Hydroxy-6,6-cyclopropyl-3,8,18,21-tetraoxo-2-oxa-11,12-dithia-7,19,22-triaza-bicyclo[7.7.6]docos-15-en-20-yl)-propionic acid tert-butyl ester", "values": [{"measurement": "ring closure, isolated yield", "setting": "disulfide bond, 15-membered ring, I2, CH2Cl2/MeOH 9:1, 0.39 mM", "result": "32% and 26%"}]}
{"compound": "3-((E)-(1S,10S,21R)-7,7-Cyclopropyl-3,6,9,19,22-pentaoxo-2-oxa-12,13-dithia-5,8,20,23-tetraaza-bicyclo[8.7.6]tricos-16-en-21-yl)-propionic acid tert-butyl ester", "values": [{"measurement": "ring closure, isolated yield", "setting": "disulfide bond, 15-membered ring, I2, CH2Cl2/MeOH 9:1, 0.4 mM, 25.0 °C", "result": 65, "unit": "%"}]}
{"compound": "3-((E)-(1S,10S,21R)-7,7-Dimethyl-3,6,9,19,22-pentaoxo-2-oxa-12,13-dithia-5,8,20,23-tetraaza-bicyclo[8.7.6]tricos-16-en-21-yl)-propionic acid tert-butyl ester", "values": [{"measurement": "ring closure, isolated yield", "setting": "disulfide bond, 15-membered ring, I2, CH2Cl2/MeOH 9:1, 0.35 mM, 25.0 °C", "result": 81, "unit": "%"}]}
{"compound": "3-((E)-(1S,10S,21R)-7-cyclobutyl-3,6,9,19,22-pentaoxo-2-oxa-12,13-dithia-5,8,20,23-tetraaza-bicyclo[8.7.6]tricos-16-en-21-yl)-propionic acid tert-butyl ester", "values": [{"measurement": "ring closure, isolated yield", "setting": "disulfide bond, 15-membered ring, I2, CH2Cl2/MeOH 9:1, 0.46 mM", "result": 93, "unit": "%"}]}
{"compound": "CC(C)(C)OC(=O)CC[C@H]1NC(=O)CC(/C=C/CCSC(c2ccccc2)(c2ccccc2)c2ccccc2)OC(=O)CNC(=O)C2(CCC2)NC(=O)C(CSC(c2ccccc2)(c2ccccc2)c2ccccc2)NC1=O", "note": "(stereo in doubt)", "values": [{"measurement": "ring closure, isolated yield", "setting": "from (3S,4E)-3-hydroxy-7-(tritylthio)hept-4-enoyl-dGlu(tBu)-dCys(Trt)-Ac4c-Gly-OH, ester bond, 16-membered ring, MNBA/DMAP, CH2Cl2/THF, 1.13 mM, 2 steps", "result": 51, "unit": "%"}]}
{"compound": "CC(C)[C@H]1NC(=O)[C@@H](CSC(c2ccccc2)(c2ccccc2)c2ccccc2)NC(=O)C(C)(C)NC(=O)CC(/C=C/CCSC(c2ccccc2)(c2ccccc2)c2ccccc2)OC(=O)CNC1=O", "note": "(stereo in doubt)", "values": [{"measurement": "ring closure, isolated yield", "setting": "from (3S,4E)-3-hydroxy-7-(tritylthio)hept-4-enoyl-Aib-dCys(Trt)-dVal-Gly-OH, ester bond, 16-membered ring, MNBA/DMAP, CH2Cl2/THF, 1.0 mM, 2 steps", "result": 47, "unit": "%"}]}
{"compound": "O=C1CC(/C=C/CCSC(c2ccccc2)(c2ccccc2)c2ccccc2)OC(=O)CNC(=O)C2(CC2)NC(=O)[C@@H](CSC(c2ccccc2)(c2ccccc2)c2ccccc2)NC(=O)[C@@H](Cc2ccncc2)N1", "note": "(stereo in doubt)", "values": [{"measurement": "ring closure, isolated yield", "setting": "from (3S,4E)-3-hydroxy-7-(tritylthio)hept-4-enoyl-d4Pal-dCys(Trt)-Acc(1-aminocyclopropanecarbonyl)-Gly-OH, ester bond, 16-membered ring, MNBA/DMAP, CH2Cl2/THF, 0.97 mM, 2 steps", "result": 54, "unit": "%"}]}
{"compound": "(E)-(1S,10S)-7,7-Cyclopropyl-2-oxa-12,13-dithia-5,8,20,23-tetraaza-bicyclo[8.7.6]tricos-16-ene-3,6,9,19,22-pentaone", "values": [{"measurement": "ring closure, isolated yield", "setting": "disulfide bond, 15-membered ring, I2, CH2Cl2/MeOH 9:1, 0.2 mM", "result": 53, "unit": "%"}]}
{"compound": "(E)-(1S,10S)-7-Isopropyl-21,21-cyclopropyl-2-oxa-12,13-dithia-5,8,20,23-tetraaza-bicyclo[8.7.6]tricos-16-ene-3,6,9,19,22-pentaone", "values": [{"measurement": "ring closure, isolated yield", "setting": "disulfide bond, 15-membered ring, I2, CH2Cl2/MeOH 9:1", "result": 76, "unit": "%"}]}
{"compound": "(E)-(1S,10S,21R)-7,7-Cyclopropyl-21-pyridin-3-ylmethyl-2-oxa-12,13-dithia-5,8,20,23-tetraaza-bicyclo[8.7.6]tricos-16-ene-3,6,9,19,22-pentaone", "values": [{"measurement": "ring closure, isolated yield", "setting": "disulfide bond, 15-membered ring, I2 (10 eq), CH2Cl2/MeOH 9:1, 0.35 mM", "result": 24, "unit": "%"}]}
{"compound": "(E)-(1S,10S,21R)-7-cyclopropyl-21-pyridin-4-ylmethyl-2-oxa-12,13-dithia-5,8,20,23-tetraaza-bicyclo[8.7.6]tricos-16-ene-3,6,9,19,22-pentaone", "values": [{"measurement": "ring closure, isolated yield", "setting": "[1]", "result": 2, "unit": "%"}]}
{"compound": "(E)-(1S,10S,21R)-21-(3-Chloro-benzyl)-7,7-cyclopropyl-2-oxa-12,13-dithia-5,8,20,23-tetraaza-bicyclo[8.7.6]tricos-16-ene-3,6,9,19,22-pentaone", "values": [{"measurement": "ring closure, isolated yield", "setting": "disulfide bond, 15-membered ring, I2, CH2Cl2/MeOH 9:1, 0.19 mM", "result": 32, "unit": "%"}]}
{"compound": "(E)-(1S,10S,21R)-21-Benzyl-7,7-cyclopropyl-2-oxa-12,13-dithia-5,8,20,23-tetraaza-bicyclo[8.7.6]tricos-16-ene-3,6,9,19,22-pentaone", "values": [{"measurement": "ring closure, isolated yield", "setting": "[1]", "result": 81, "unit": "%"}]}
